Patent US9586949B2, “Aza-heteroaryl compounds as PI3K-gamma inhibitors” (Incyte Corporation, priority 2015, dated 2017)
Counter-ions that a name gives are not always drawn.

How the values were obtained:
[1] = molecular target: PI3Kδ (p110δ/p85α) Recombinant Human Protein (Homo sapiens (Human), UniProt O00329); assay: PI3Kδ Scintillation Proximity Assay; assay type: biochemical; conditions: 20 μM PIP2, 2 μM ATP, 3.4 nM PI3Kδ, 120 min; read-out: PI3K-delta SPA IC50
Source text: [γ-^33P]ATP (10 mCi/mL) and Wheat Germ Agglutinin (WGA) YSi SPA Scintillation Beads was purchased from Perkin-Elmer (Waltham, Mass.). Lipid kinase substrate, D-myo-Phosphatidylinositol 4,5-bisphosphate (PtdIns(4,5)P2)D (+)-sn-1,2-di-O-octanoylglyceryl, 3-O-phospho linked (PIP2), CAS 204858-53-7, was purchased from Echelon Biosciences (Salt Lake City, Utah). PI3Kδ (p110δ/p85α) Recombinant Human Protein was purchased from Eurofins (St Charles, Mo.). ATP, MgCl2, DTT, EDTA, MOPS and CHAPS were purchased from Sigma-Aldrich (St. Louis, Mo.).
(§1) The kinase reaction was conducted in polystyrene 384-well Greiner Bio-one white plate from Thermo Fisher Scientific in a final volume of 25 μL. Inhibitors were first diluted serially in DMSO and added to the plate wells before the addition of other reaction components. The final concentration of DMSO in the assay was 2%. The PI3Kδ assay was carried out at room temperature in 20 mM MOPS, pH 6.7, 10 mM MgCl2, 5 mM DTT and CHAPS 0.03%. Reactions were initiated by the addition of ATP, the final reaction mixture consisted of 20 μM PIP2, 2 μM ATP, 0.5 μCi [γ-^33P] ATP, 3.4 nM PI3Kδ. Reactions were incubated for 120 min and terminated by the addition of 40 μL SPA beads suspended in quench buffer: 163 mM potassium phosphate pH 7.8, 20% glycerol, 25 mM EDTA. The final concentration of SPA beads is 1.0 mg/mL. After the plate sealing, plates were shaken overnight at room temperature and centrifuged at 1500 rpm for 10 min, the radioactivity of the product was determined by scintillation counting on Topcount (Perkin-Elmer). IC50 determination was performed by fitting the curve of percent of the solvent control activity versus the log of the inhibitor concentration using the GraphPad Prism 6.0 software.

[2] = molecular target: PI3Kγ (p110γ) Recombinant Human Protein (Homo sapiens (Human), UniProt P48736); assay: PI3K-γ Scintillation Proximity Assay; assay type: biochemical; conditions: 20 μM PIP2, 2 μM ATP, 13 nM PI3Kγ, 120 min; read-out: PI3K-gamma SPA IC50
Sequence of PI3Kγ (p110γ) Recombinant Human Protein (P48736 whole entry): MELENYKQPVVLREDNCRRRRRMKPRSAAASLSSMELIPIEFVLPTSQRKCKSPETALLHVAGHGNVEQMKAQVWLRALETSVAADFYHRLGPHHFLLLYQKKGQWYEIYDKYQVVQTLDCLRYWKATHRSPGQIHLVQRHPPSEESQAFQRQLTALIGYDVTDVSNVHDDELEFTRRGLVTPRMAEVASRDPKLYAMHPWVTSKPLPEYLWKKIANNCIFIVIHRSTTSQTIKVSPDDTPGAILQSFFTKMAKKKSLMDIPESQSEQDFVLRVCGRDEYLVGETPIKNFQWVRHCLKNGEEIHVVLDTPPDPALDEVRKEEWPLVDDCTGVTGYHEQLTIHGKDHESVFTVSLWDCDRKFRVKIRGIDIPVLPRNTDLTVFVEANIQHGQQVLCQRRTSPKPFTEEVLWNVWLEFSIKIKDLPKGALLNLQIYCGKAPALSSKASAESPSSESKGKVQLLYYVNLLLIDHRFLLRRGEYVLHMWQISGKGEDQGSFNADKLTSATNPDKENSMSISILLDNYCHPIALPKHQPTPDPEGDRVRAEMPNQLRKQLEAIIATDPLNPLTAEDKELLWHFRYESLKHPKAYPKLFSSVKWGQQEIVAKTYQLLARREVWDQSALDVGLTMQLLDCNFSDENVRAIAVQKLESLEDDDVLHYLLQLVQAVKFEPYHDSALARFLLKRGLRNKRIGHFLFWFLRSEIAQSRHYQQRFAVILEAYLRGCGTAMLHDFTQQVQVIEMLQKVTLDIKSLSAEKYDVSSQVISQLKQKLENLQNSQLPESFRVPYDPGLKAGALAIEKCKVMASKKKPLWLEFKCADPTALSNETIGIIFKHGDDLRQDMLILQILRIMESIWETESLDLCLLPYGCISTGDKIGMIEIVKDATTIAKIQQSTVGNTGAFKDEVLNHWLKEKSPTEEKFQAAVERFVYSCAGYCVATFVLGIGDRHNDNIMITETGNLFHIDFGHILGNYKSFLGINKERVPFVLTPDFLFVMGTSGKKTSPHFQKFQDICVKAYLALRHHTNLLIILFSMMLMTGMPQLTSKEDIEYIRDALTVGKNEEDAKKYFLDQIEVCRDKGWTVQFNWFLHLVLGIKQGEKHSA
Method: [γ-^33P]ATP (10 mCi/mL) and Wheat Germ Agglutinin (WGA) YSi SPA Scintillation Beads was purchased from Perkin-Elmer (Waltham, Mass.). […] PI3Kγ (p110γ) Recombinant Human Protein was purchased from Life technology (Grand Island, N.Y.). ATP, MgCl2, DTT, EDTA, MOPS and CHAPS were purchased from Sigma-Aldrich (St. Louis, Mo.).
as §1, with “PI3Kγ” for “PI3Kδ”, “ATP, 3.4 nM PI3Kδ. Reactions were incubated for 120 min and terminated by the addition of 40 μL SPA beads suspended in quench buffer: 163 mM potassium phosphate pH 7.8, 20% glycerol, 25 mM EDTA.” left out

Sequence of PI3Kδ (p110δ/p85α) Recombinant Human Protein (O00329 whole entry): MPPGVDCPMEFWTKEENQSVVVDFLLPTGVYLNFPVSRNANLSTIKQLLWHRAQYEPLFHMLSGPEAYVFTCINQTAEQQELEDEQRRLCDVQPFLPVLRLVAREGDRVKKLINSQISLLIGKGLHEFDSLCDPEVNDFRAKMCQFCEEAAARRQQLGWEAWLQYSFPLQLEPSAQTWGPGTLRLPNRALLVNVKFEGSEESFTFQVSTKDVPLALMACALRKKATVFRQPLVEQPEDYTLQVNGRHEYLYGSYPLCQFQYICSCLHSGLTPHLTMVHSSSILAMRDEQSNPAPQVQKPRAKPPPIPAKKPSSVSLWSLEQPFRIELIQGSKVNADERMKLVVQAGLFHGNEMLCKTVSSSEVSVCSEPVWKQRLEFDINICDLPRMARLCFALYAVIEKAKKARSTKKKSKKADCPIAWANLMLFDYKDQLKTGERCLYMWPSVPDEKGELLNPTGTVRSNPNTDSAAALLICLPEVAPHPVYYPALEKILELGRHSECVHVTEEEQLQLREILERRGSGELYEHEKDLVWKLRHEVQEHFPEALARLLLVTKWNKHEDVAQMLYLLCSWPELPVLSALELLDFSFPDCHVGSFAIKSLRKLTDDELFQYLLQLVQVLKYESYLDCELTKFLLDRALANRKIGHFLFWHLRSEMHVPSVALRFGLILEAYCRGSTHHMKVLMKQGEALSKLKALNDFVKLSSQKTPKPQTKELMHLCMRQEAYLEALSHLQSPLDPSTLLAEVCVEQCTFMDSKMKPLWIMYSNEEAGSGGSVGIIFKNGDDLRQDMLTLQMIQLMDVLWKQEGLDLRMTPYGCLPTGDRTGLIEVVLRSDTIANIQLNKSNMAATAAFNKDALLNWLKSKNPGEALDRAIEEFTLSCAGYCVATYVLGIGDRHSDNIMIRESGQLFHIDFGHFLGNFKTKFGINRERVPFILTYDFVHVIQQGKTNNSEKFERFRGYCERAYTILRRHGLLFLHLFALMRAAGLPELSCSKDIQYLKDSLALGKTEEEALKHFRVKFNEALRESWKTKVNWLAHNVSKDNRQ
Sequence of PI3Kδ (p110δ/p85α) Recombinant Human Protein (P27986 whole entry partner): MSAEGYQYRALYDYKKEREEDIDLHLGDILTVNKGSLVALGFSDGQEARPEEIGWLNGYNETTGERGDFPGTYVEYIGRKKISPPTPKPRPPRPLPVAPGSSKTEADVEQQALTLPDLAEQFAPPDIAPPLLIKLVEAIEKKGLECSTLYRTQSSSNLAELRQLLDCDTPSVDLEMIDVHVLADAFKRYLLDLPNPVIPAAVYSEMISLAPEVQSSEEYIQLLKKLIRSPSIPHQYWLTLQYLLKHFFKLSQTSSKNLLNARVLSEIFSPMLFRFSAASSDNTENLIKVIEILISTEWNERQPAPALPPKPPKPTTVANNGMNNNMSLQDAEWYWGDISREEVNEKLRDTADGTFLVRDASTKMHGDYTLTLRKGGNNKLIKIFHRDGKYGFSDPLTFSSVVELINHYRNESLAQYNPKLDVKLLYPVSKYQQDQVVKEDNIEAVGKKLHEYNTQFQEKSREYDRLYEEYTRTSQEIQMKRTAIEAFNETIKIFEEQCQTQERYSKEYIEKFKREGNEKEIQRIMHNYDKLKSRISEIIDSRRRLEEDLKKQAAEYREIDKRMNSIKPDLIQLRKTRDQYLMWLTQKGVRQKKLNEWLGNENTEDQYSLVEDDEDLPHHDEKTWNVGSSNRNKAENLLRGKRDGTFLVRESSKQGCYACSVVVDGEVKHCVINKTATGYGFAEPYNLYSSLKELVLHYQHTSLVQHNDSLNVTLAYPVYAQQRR

SMILES	IC50 [1]	IC50 [2]
CN1CCN(S(=O)(=O)Nc2cncc(-c3ccc4nc(-c5nc6ccccc6[nH]5)oc4c3)c2)CC1 [Example 31, N-(5-(2-(1H-Benzo[d]imidazol-2-yl)benzo[d]oxazol-6-yl)pyridin-3-yl)-4-methylpiperazine-1-sulfonamide]	< 250 nM	< 250 nM
CN1CCN(S(=O)(=O)Nc2cc(-c3ccc4nc(-c5nc6ccccc6[nH]5)oc4c3)cnc2F)CC1 [Example 32, N-(5-(2-(1H-Benzo[d]imidazol-2-yl)benzo[d]oxazol-6-yl)-2-fluoropyridin-3-yl)-4-methylpiperazine-1-sulfonamide]	< 250 nM	< 250 nM
CC(=O)Nc1cncc(-c2ccc3nc(-c4nc5ccccc5[nH]4)oc3c2)c1 [Example 33, N-(5-(2-(1H-Benzo[d]imidazol-2-yl)benzo[d]oxazol-6-yl)pyridin-3-yl)acetamide]	≥ 5000 nM	< 1000 nM
CN(C)c1cncc(-c2ccc3nc(-c4nc5ccccc5[nH]4)oc3c2)c1 [Example 34, 5-(2-(1H-Benzo[d]imidazol-2-yl)benzo[d]oxazol-6-yl)-N,N-dimethylpyridin-3-amine]	< 5000 nM	< 250 nM
N#Cc1cncc(-c2ccc3nc(-c4nc5ccccc5[nH]4)oc3c2)c1 [Example 35, 5-(2-(1H-Benzo[d]imidazol-2-yl)benzo[d]oxazol-6-yl)nicotinonitrile]	≥ 5000 nM	< 250 nM
CS(=O)(=O)c1cncc(-c2ccc3nc(-c4nc5ccccc5[nH]4)oc3c2)c1 [Example 36, 2-(1H-Benzo[d]imidazol-2-yl)-6-(5-(methylsulfonyl)pyridin-3-yl)benzo[d]oxazole]	< 5000 nM	< 250 nM
CN(C)S(=O)(=O)c1cncc(-c2ccc3nc(-c4nc5ccccc5[nH]4)oc3c2)c1 [Example 37, 5-[2-(1H-benzimidazol-2-yl)-1,3-benzoxazol-6-yl]-N,N-dimethylpyridine-3-sulfonamide]	< 1000 nM	< 250 nM
O=S(=O)(c1cncc(-c2ccc3nc(-c4nc5ccccc5[nH]4)oc3c2)c1)N1CCOCC1 [Example 38, 2-(1H-Benzo[d]imidazol-2-yl)-6-(5-(morpholinosulfonyl)pyridin-3-yl)benzo[d]oxazole]	≥ 5000 nM	< 250 nM
O=S(=O)(Nc1cncc(-c2ccc3nc(-c4ncc[nH]4)oc3c2)c1)c1ccc(F)cc1 [Example 39, N-(5-(2-(1H-Imidazol-2-yl)benzo[d]oxazol-6-yl)pyridin-3-yl)-4-fluorobenzenesulfonamide]	< 250 nM	< 250 nM
CCS(=O)(=O)Nc1cncc(-c2ccc3nc(-c4ncc[nH]4)oc3c2)c1 [Example 40, N-(5-(2-(1H-Imidazol-2-yl)benzo[d]oxazol-6-yl)pyridin-3-yl)ethanesulf-onamide]	< 1000 nM	< 250 nM
CN(C)S(=O)(=O)Nc1cncc(-c2ccc3nc(-c4ncc[nH]4)oc3c2)c1 [Example 41, N′-{5-[2-(1H-Imidazol-2-yl)-1,3-benzoxazol-6-yl]pyridin-3-yl}-N,N-dimethyl-sulfamide]	< 1000 nM	< 250 nM
COc1cncc(-c2ccc3nc(-c4cnc(C5CC5)[nH]4)oc3c2)c1 [Example 42, 2-(2-Cyclopropyl-1H-imidazol-5-yl)-6-(5-methoxypyridin-3-yl)benzo[d]oxazole]	< 5000 nM	< 1000 nM
COc1cncc(-c2ccc3nc(-c4cnc(C5CCOC5)[nH]4)oc3c2)c1 (centres unmarked) [Example 43, 6-(5-Methoxy-pyridin-3-yl)-2-(2-(tetrahydro-furan-3-yl)-1H-imidazol-5-yl)benzo[d] oxazole]	≥ 5000 nM	< 5000 nM
COc1cncc(-c2ccc3nc(-c4cnc(-c5ccccc5)[nH]4)oc3c2)c1 [Example 44, 6-(5-Methoxy-pyridin-3-yl)-2-(2-phenyl-1H-imidazol-5-yl)benzo[d] oxazole]	≥ 5000 nM	< 250 nM
CCc1ncc(-c2nc3ccc(-c4cncc(OC)c4)cc3o2)[nH]1 [Example 45, 2-(2-Ethyl-1H-imidazol-5-yl)-6-(5-methoxy-pyridin-3-yl)benzo[d] oxazole]	≥ 5000 nM	> 5000 nM
COc1cncc(-c2ccc3nc(-c4cc(C)n[nH]4)oc3c2)c1 [Example 46, 6-(5-Methoxypyridin-3-yl)-2-(3-methyl-1H-pyrazol-5-yl)benzo[d]oxazole]	≥ 5000 nM	> 5000 nM
COc1cncc(-c2ccc3nc(-c4cc(-c5ccccc5)n[nH]4)oc3c2)c1 [Example 47, 6-(5-Methoxypyridin-3-yl)-2-(3-phenyl-1H-pyrazol-5-yl)benzo[d]oxazole]	≥ 5000 nM	< 5000 nM
c1ccc(Cn2cc(-c3ccc4nc(-c5nc6ccccc6[nH]5)oc4c3)cn2)cc1 [Example 48, 2-(1H-Benzimidazol-2-yl)-6-(1-benzyl-1H-pyrazol-4-yl)-1,3-benzoxazole]	< 5000 nM	< 250 nM
c1ccc2[nH]c(-c3nc4ccc(-c5ccc6[nH]ncc6c5)cc4o3)nc2c1 [Example 49, 2-(1H-Benzimidazol-2-yl)-6-(1H-indazol-5-yl)-1,3-benzoxazole]	< 5000 nM	< 250 nM
Cc1n[nH]c2ccc(-c3ccc4nc(-c5nc6ccccc6[nH]5)oc4c3)cc12 [Example 50, 2-(1H-Benzimidazol-2-yl)-6-(3-methyl-1H-indazol-5-yl)-1,3-benzoxazole]	< 250 nM	< 250 nM
Fc1ccc(-c2ccc3nc(-c4nc5ccccc5[nH]4)oc3c2)cc1F [Example 51, 2-(1H-Benzimidazol-2-yl)-6-(3,4-difluorophenyl)-1,3-benzoxazole trifluoroacetate]	≥ 5000 nM	< 250 nM
CCS(=O)(=O)n1ncc2ccc(-c3ccc4nc(-c5nc6ccccc6[nH]5)oc4c3)cc21 [Example 52, 6-[1-(Ethylsulfonyl)-1H-indazol-6-yl]-2-(1H-benzimidazol-2-yl)-1,3-benzoxazole]	< 250 nM	< 250 nM
CCn1cc2ccc(-c3ccc4nc(-c5nc6ccccc6[nH]5)oc4c3)cc2n1 [Example 53, 2-(1H-benzimidazol-2-yl)-6-(2-ethyl-2H-indazol-6-yl)-1,3-benzoxazole bis(trifluoroacetate)]	≥ 5000 nM	< 250 nM
CCn1ncc2ccc(-c3ccc4nc(-c5nc6ccccc6[nH]5)oc4c3)cc21 [Example 54, 2-(1H-benzimidazol-2-yl)-6-(1-ethyl-1H-indazol-6-yl)-1,3-benzoxazole bis(trifluoroacetate)]	≥ 5000 nM	< 250 nM
c1ccc(CN2CCN(c3ccc4nc(-c5nc6ccccc6[nH]5)oc4c3)CC2)cc1 [Example 55, 2-(1H-Benzimidazol-2-yl)-6-(4-benzylpiperazin-1-yl)-1,3-benzoxazole tris(trifluoroacetate)]	≥ 5000 nM	< 5000 nM
Nc1ncc(-c2ccc3nc(-c4nc5ccccc5[nH]4)oc3c2)cc1C(F)(F)F [Example 56, 5-[2-(1H-Benzimidazol-2-yl)-1,3-benzoxazol-6-yl]-3-(trifluoromethyl)pyridin-2-amine bis(trifluoroacetate)]	≥ 5000 nM	< 250 nM
CCn1ncc2ncc(-c3ccc4nc(-c5nc6ccccc6[nH]5)oc4c3)cc21 [Example 57, 6-[2-(1H-Benzimidazol-2-yl)-1,3-benzoxazol-6-yl]-1-ethyl-1H-pyrazolo[4,3-b]pyridine tris(trifluoroacetate)]	< 1000 nM	< 250 nM
O=S(=O)(c1cncc(-c2ccc3nc(-c4nc5ccccc5[nH]4)oc3c2)c1)N1CCC(O)C1 (centres unmarked) [Example 58, 1-({5-[2-(1H-Benzimidazol-2-yl)-1,3-benzoxazol-6-yl]pyridin-3-yl}sulfonyl)pyrrolidin-3-ol bis(trifluoroacetate)]	< 1000 nM	< 250 nM
